Values quoted from earlier work, collected in patent US20090005340A1, “Bioactive Agents Produced By Submerged Cultivation of a Basidiomycete Cell” (MediMush A/S, priority 2005, published 2009).

Test system: cytochrome P450s (CYPs)

Lentinan
expression of cytochrome P450s (CYPs): suppress the expression
